# Experiments:
# [1] = test system: human aortic endothelial cells; experiment: Lipid hydroperoxide formation when treated LDL is added to HAEC; type: cell-based; conditions: LDL 250 μg pre-incubated with agent 4 hrs, re-isolated
# Description: (§1) Freshly isolated LDL (250 μg) was incubated with pure 13(S)-HPODE (1.0 μg) in 10% LPDS in M 199 for 4 hrs at 37° C. with gentle mixing. LDL was re-isolated by centrifugation and was incubated with monolayers of human aortic endothelial cells. Supernatants were removed at time points ranging from zero to 5 hours and were assayed for lipid hydroperoxide content. The endothelial monolayer was washed after each time point and a monocyte suspension was added, incubated, washed, and the number of adherent monocytes determined.
# Freshly isolated LDL (250 μg) was incubated with 10 units of pure soybean lipoxygenase bound to sepharose beads for 4 hrs at 37° C. with gentle mixing. LDL was re-isolated by centrifugation and incubated with monolayers of HAEC. Supernatants were removed at time points ranging from zero to 4 hours and were assayed for lipid hydroperoxide content. The endothelial monolayer was washed after each time point and monocyte adhesion determined.
# (§2) Statistical significance was determined by model 1 ANOVA. […] Significance is defined as p<0.05.
# [2] = Non-enzymatic formation of cholesteryl linoleate hydroperoxide (RP-HPLC); conditions: 0.5 μg/ml with cholesteryl linoleate 10 μg/ml, air oxidation 6 hrs
# Description: […] 0.5 μg/ml (Panel A) or cholesteryl linoleate 10 μg/ml (Panel B) or cholesteryl linoleate 10 μg/ml together with 13(S) HPODE 0.5 μg/ml (Panel C) in chloroform/methanol (2:1, v/v) containing 0.01% BHT was briefly swirled to mix and evaporated to dryness under argon and allowed to undergo air oxidation in a laminar flow hood for 6 hrs. The lipids were solubilized in 50 μl of chloroform and analyzed for the presence of cholesteryl linoleate hydroperoxide (Ch18:2-OOH) by RP-HPLC as described herein.
# Fast performance liquid chromatography (FPLC) and reverse phase high performance liquid chromatography ([…]) were performed as described in example 1. For the detection of cholesteryl linoleate hydroperoxide an Alltech Alltima 250×4.6 mm, 5 micron RP-HPLC C18 column was used to separate and detect cholesteryl linoleate hydroperoxide at 234 nm and cholesteryl linoleate at 205 nm. The mobile solvent consisted of acetonitrile/2-propanol/water (44:54:2, v/v/v) at 1.0 ml/min. Lipids were resuspended in the mobile solvent for injection.
# [3] = Non-enzymatic oxidation of PAPC to POVPC, PGPC, PEIPC (ESI-MS); conditions: for amount that significantly decreased PAPC and increased the three oxidized phospholipids: added to 10 μg of PAPC for 8 hours
# [4] = test system: HAEC monolayers; experiment: Monocyte adhesion assay; type: cell-based, human; conditions: LDL 250 μg pre-incubated with agent 4 hrs, re-isolated
# Description: In brief, HAEC monolayers, in 48-well tissue culture plates were incubated with the desired LDL or phospholipid for 4 hrs at 37° C. as described (Watson et al. (1995) J. Clin. Invest. 96: 2882-2891). After washing, a suspension of human peripheral blood monocytes was added and incubated for 10 min. The loosely adherent monocytes were then washed away, the monolayers were fixed and the number of adherent monocytes counted in 9 high power microscopic fields.
# as §1, with “Supernatants were removed at time points ranging from zero to 5 hours and were assayed for lipid hydroperoxide content.” left out
# Freshly isolated LDL (250 μg) was incubated with 10 units of pure soybean lipoxygenase bound to sepharose beads for 4 hrs at 37° C. with gentle mixing. […] The endothelial monolayer was washed after each time point and monocyte adhesion determined.
# Blood samples were collected from patients referred to the cardiac catheterization laboratory at The Center for Health Sciences at the University of California, Los Angeles. […] The HDL-Ox-PAPC mixture was then added to endothelial monolayers and monocyte binding was determined.
# [5] = test system: human artery wall cell cocultures; experiment: LDL oxidation by human artery wall cell cocultures (lipid hydroperoxides); type: cell-based; conditions: for reduction in lipid hydroperoxide levels: cocultures preincubated with inhibitor 1×10^−8 mol/L before addition of LDL 250 μg/ml, 8 hrs; for oxidation of LDL by fatty acid pretreated artery wall cells: cocultures 18 hours with 100 μM fatty acid, washed, then LDL 250 μg/ml; for ability of pretreated artery wall cocultures to oxidize LDL: cocultures incubated 8 hrs with agent, agent removed before LDL 250 μg/ml
# Description: (§3) The wells of the microtiter plates were treated with 0.1% gelatin at 37° C. overnight. HASMC were added at a confluent density of 1×10^5 cells/cm^2. Cells were cultured for 2 d at which time they had covered the entire surface of the well and had produced a substantial amount of extracellular matrix. HAEC were subsequently added at 2×10^5 cells/cm^2 and were allowed to grow forming a complete monolayer of confluent HAEC in 2 d. In all experiments, HAEC and autologous HASMC (from the same donor) were used at passage levels of four to six.
# (§4) In general, the cocultures were treated with native LDL (250 μg/ml) in the absence or presence of HDL for 8 h. The supernatants were collected and used for determination of lipid hydroperoxide levels. The cocultures were subsequently washed and fresh culture medium 199 (M199) without any additions was added and incubated for an additional 8 hrs. This allowed the collection of monocyte chemotactic activity released by the cells as a result of stimulation by the oxidized LDL. At the end of incubation, the supernatants were collected from cocultures, diluted 40-fold, and assayed for monocyte chemotactic activity. Briefly, the supernatant was added to a standard Neuroprobe chamber (NeuroProbe, Cabin John, Md.), with monocytes added to the top. The chamber was incubated for 60 min at 37° C. After the incubation, the chamber was disassembled and the nonmigrated monocytes were wiped off. The membrane was then air dried and fixed with 1% glutaraldehyde and stained with 0.1% Crystal Violet dye. The number of migrated monocytes was determined microscopically and expressed as the mean±SD of 12 standardized high power fields counted in quadruple wells.
# as §2
# Human artery wall cocultures were preincubated with ETYA at a concentration of 10^−8 mol/L or with cinnamyl-3,4-dihydroxy-α-cyanocynamate (CDC, from Biomol) at a concentration of 10^−8 mol/L in M199 containing 10% LPDS for 30 min. The cocultures were then washed and LDL was added at 250 μg/ml and incubated for 8 hrs.
# [6] = test system: human artery wall cell cocultures; experiment: Monocyte chemotaxis assay on coculture conditioned medium; type: cell-based; conditions: for decrease in LDL-induced monocyte chemotactic activity: cocultures preincubated with inhibitor 1×10^−8 mol/L before addition of LDL 250 μg/ml; for LDL-induced monocyte chemotaxis in fatty acid pretreated cocultures: cocultures 18 hours with 100 μM fatty acid, washed, then LDL; for LDL-induced monocyte chemotaxis in pretreated cocultures: cocultures incubated 8 hrs with agent, agent removed before LDL
# Description: as §3
# Monocytes were isolated using a modification of the Recalde method as previously described (Fogelman et al. (1988) J. Lipid Res. 29: 1243-1247) from the blood of normal volunteers after obtaining written consent under a protocol approved by the human research subject protection committee of the University of California, Los Angeles.
# as §4
# [7] = test system: human artery wall cell cocultures; experiment: Hydroperoxide content of apo A-I lipid extract from fatty acid treated cocultures; type: cell-based; conditions: cocultures with or without C18:2, then apo A-I 100 μg/ml 3 hrs
# Description: The medium was removed and the cultures washed three times. Fresh medium without fatty acids was added and the cultures were incubated at 37° C. for an additional 3 hrs. […] at 250 μg/ml was then added to one set of the cocultures in M199 containing 10% LPDS and incubated for 8 hrs. The medium was then removed and lipid hydroperoxides (Panel A) and monocyte chemotactic activity (Panel B) determined. To the second set of cocultures (Panel C) apo A-I was added at 100 μg/ml and incubated for three more hours with gentle mixing at 37° C. […] Values are mean±SD of triplicate determinations. The asterisks denote p<0.001. […] (1991) Drug Metab. Dispos. 19: 100-106). Statistical significance was determined by model 1 ANOVA. […] Significance is defined as p<0.05.
# [8] = test system: paraoxonase; conditions: mice, six hours after injection
compound,measurement,setting,value
"CCCCC[C@@H](/C=C/C=C\CCCCCCCC(=O)O)OO [13(S)-HPODE, 13(S)-hydroperoxyoctadecadienoic acid]",formation of lipid hydroperoxides when treated LDL added to HAEC,[1],increased the formation of lipid hydroperoxides
same,non-enzymatic formation of cholesteryl linoleate hydroperoxide (Ch18:2-OOH),[2],markedly stimulated the non-enzymatic formation of cholesteryl linoleate hydroperoxide
same,ability to oxidize PAPC on a molar basis relative to hydrogen peroxide,[3],more than two orders of magnitude greater
same,"formation of POVPC, PGPC, PEIPC from PAPC as a function of time","[3]; 1.0 μg added to 10 μg PAPC, air oxidation",enhanced the formation of the three biologically active oxidized phospholipids at each time point sampled
same,amount that significantly decreased PAPC and increased the three oxidized phospholipids,[3],0.5 µg
same,monocyte adherence to HAEC induced by treated LDL,[4],increased monocyte adherence to HAEC
"CCCCC[C@@H](/C=C/C=C\C/C=C\C/C=C\CCCC(=O)O)OO [15(S)-HPETE, 15(S)-hydroperoxyeicosatetraenoic acid]",ability to oxidize PAPC on a molar basis relative to hydrogen peroxide,[3],more than two orders of magnitude greater
same,amount that significantly decreased PAPC and increased the three oxidized phospholipids,[3],0.5 µg
"N#CC(=Cc1ccc(O)c(O)c1)C(=O)OCC=Cc1ccccc1 [CDC, cinnamyl-3,4-dihydroxy-α-cyanocynamate]",reduction in lipid hydroperoxide levels,[5],73±6%
same,decrease in LDL-induced monocyte chemotactic activity,[6],74±11%
"CCCCCC#CCC#CCC#CCC#CCCCC(=O)O [ETYA, 5,8,11,14-eicosatetraynoic acid]",reduction in lipid hydroperoxide levels,[5],80±7%
same,decrease in LDL-induced monocyte chemotactic activity,[6],75±10%
CCCCC/C=C\C/C=C\C/C=C\C/C=C\CCCC(=O)O [arachidonic acid],oxidation of LDL by fatty acid pretreated artery wall cells,[5],even more potent than linoleic acid
OO [hydrogen peroxide],effect on relative abundance of PAPC and formation of oxidized phospholipids,"[3]; 2 mM and 4 mM, 10 μg PAPC, 8 hours",had no effect
same,effect on relative abundance of PAPC,[3]; 8 mM added to 10 μg PAPC for 8 hours,dramatically decreased the relative abundance of PAPC
CCCCC/C=C\C/C=C\CCCCCCCC(=O)O [linoleic acid],13-HPODE equivalents in the lipid extract of apo A-I,[7],dramatically increased the 13-HPODE equivalents
same,oxidation of LDL by fatty acid pretreated artery wall cells,[5],stimulates the oxidation of LDL by artery wall cells
same,LDL-induced monocyte chemotaxis in fatty acid pretreated cocultures,[6],stimulates LDL-induced monocyte chemotaxis
CCCCCCCC/C=C\CCCCCCCC(=O)O [oleic acid],oxidation of LDL by fatty acid pretreated artery wall cells,[5],not
same,LDL-induced monocyte chemotaxis in fatty acid pretreated cocultures,[6],not
DWL KAF YDK VAE KLK EAF PDW LKA FYD KVA EKL KEA F (DWLKAFYDKVAEKLKEAFPDWLKAFYDKVAEKLKEAF; Synthetic apo A-I peptide mimetic) [37 pA],ability of pretreated artery wall cocultures to oxidize LDL,[5],unable to oxidize the added LDL
same,LDL-induced monocyte chemotaxis in pretreated cocultures,[6],did not induce monocyte chemotaxis
same,LDL-induced monocyte chemotactic activity of LDL pre-incubated with the agent,"[6]; human LDL incubated with agent, re-isolated, then cocultures",did not induce monocyte chemotactic activity
apo A-II: Human apo A-II obtained from Sigma,ability of pretreated artery wall cocultures to oxidize LDL,[5],retained their ability to oxidize LDL
same,"PON activity in plasma and HDL, increase",[8],did not change
same,LDL-induced monocyte chemotaxis in pretreated cocultures,[6],induce monocyte chemotaxis

# Source: patent US7250304B2, “Functional assay of high-density lipoprotein” (The Regents of the University of California, priority 2000, dated 2007)
